Assays:
[1] = test system: Staphyloccocus aureus Rosenbach; assay: Treatment of infection by Staphyloccocus aureus Rosenbach in vivo
Excerpt: (§1) 2.10.1 select some bacterial related to acute pharyngitis, such as Staphyloccocus aureus Rosenbach, and α-hemolytic streptococcus, inject above bacterial into animals, such as mouse, by intraperitoneal dosing or subcutaneous injection, which will make certain animal death. Dosed before infecting the bacterial, and dosed after infecting the bacterial, the animals will be observed for eating, drinking, and movement.
(§2) Observe and record the eating, drinking, and movement in 4 days as the normal value. Besides of control group, animals in other groups are injected 0.5 ml Staphyloccocus aureus Rosenbach by intraperitoneal dosing or subcutaneous injection In the next day, animals are feed 5 days by gavage, twice every day. Observe the condition of eating, drinking, and movement, and mean growth rates, and then compare with control group.

[2] = test system: α-hemolytic streptococcus; assay: Experimental treatment of infection by α-hemolytic streptococcus in vivo; settings: Ofloxacin 500 mg/kg
Excerpt: as §1, §2
The other methods are the same as the section 2.10.1.

[3] = test system: ciliary movement in trachea mucous of rabbits; assay: Ciliary movement in trachea mucous; parameters: species or system rabbit; key to Ciliary movement: +++: All ciliary active in field of vision:; ++: ⅓~⅔ ciliary active in field of vision:; +: Less than ⅓ ciliary active in field of vision:; −−: All ciliary inactive in field of vision:; settings: Ach, Dosage (g/L) 0.1
Description: The trachea mucous is exposed and washed by Ringer's solution (37° C.), then observe the sample by anatomical lens.
Add an ink into trachea mucous, the ink will move to one way (towards larynx), measure the velocity by micrometer and stopwatch, then calculate the moving velocity of mucus moving (second/2 mm).

[4] = test system: model mouse with chronic bronchitis; assay: Cough of chronic bronchitis (SO2 stimulation); type: in vivo; settings: Dextromethorphan 15 mg/kg (positive control, also dexamethason 1.2 mg/kg)
Description: Preparation of model mouse with chronic bronchitis: choose 90 white mice, 20-25 g each, male or female Divide the mice randomly into six groups. In normal control group, no S02 stimulation is given, mice are feeding normally. In other groups, the following SO2 stimulation is given: place a utensil with 0.5 g anhydrous sodium sulfite in an 8 L bell cover, and place mice of each group into the bell cover, and add 50% vitriol 5 ml into the utensil, and take out the mice after 2 minutes; Once every day, 21 days.
During the dosing, observe the whole condition of animals in each group, and give the above SO2 stimulation to them in one hour after the last dosing. Record the delitescence of cough of each animal, and record the times of cough of each animal in 3 minutes.

[5] = test system: model mouse with acute bronchitis; assay: Cough of acute bronchitis (SO2 stimulation); type: in vivo; settings: Dextromethorphan 15 mg/kg oral
Description: Preparation of model mouse with acute bronchitis: choose white mice, 20-25 g each, male or female. Pre-select method: place a utensil with 0.5 g anhydrous sodium sulfite in an 1 L beaker, add 50% vitriol 5 ml into the utensil, and place mice of each group into the beaker after 15 seconds, and take out the mice after 30 seconds. The mouse which starts cough in 3 minutes is an eligible mouse. Record the delitescence of cough of each animal, and record the times of cough of each animal. […] During the dosing, observe the whole condition of animals in each group, and give the above SO2 stimulation to them for 30 seconds in one hour after the last dosing. Record the delitescence of cough of each mouse, and record the times of cough of each animal in 3 minutes.

[6] = test system: model rat with chronic bronchitis; assay: Treatment of pneumonia, histology of trachea and pneumonic tissue; type: in vivo, SD rat; settings: positive group, dexamethason 1.2 mg/kg (FIG. 5), gavage 10 days
Description: Preparation of model rat with chronic bronchitis: choose 60 SD rats, 250-300 g each, male or female. Divide the rats randomly into six groups, one is normal control group, the other five groups are model groups which are modeling according to section 2.4.
During the dosing, observe the whole condition of animals in each group, and carry out the following procedures in ten days after the last dosing: The rats are narcosis under intraperitoneal anesthesia by 0.4 ml/100 g 10% chloral hydrate, and put on the operating table, open the neck and chest, bring out the trachea and pneumonic tissue, and then observe the condition of the sample. The sample is fixed by 10% formalin solution, and embedded by paraffin, and cut into slices, and dyed by HE. The inflammatory pathological changes are observed by microscope, including the integrality of epidermis, thickness of glands, infiltration of inflammatory cells in tracheal mucous, follicular lymph, and thickness of tracheal wall.

[7] = test system: model animal with emphysema and pulmonary hypertension; assay: Experimental emphysema and pulmonary hypertension model; type: in vivo, golden hamster
Description: Preparation of model animal with emphysema and pulmonary hypertension: choose 75 from 90 male golden hamster randomly, 100-150 g each, to make model mouse. The model-building is performed on elected 75 animals under intraperitoneal anesthesia. Then open the mouse and exposure its throat, insert a pipe and inject the medicine fluid (60 U/100 g weight) into the body through the pipe, then shake the animal to let the medicine equality. Animals are wake in several hours, and feed normally. Other 15 golden hamster are acted as normal control group (Group A), the same volume of saline is injected in each trachea of each animal.
After perfusion of the medicine by gavage, animals are killed to measure the following:
Right Systolic Pressure (RSP): animals are cut in the neck to expose the right jugular vein, then insert the pipe into the right jugular vein to right ventricle, the pipe also connects the physiological monitor (RM-6300, Japan) for blood pressure measuring. The right carotic artery is also exposed and cannulated for blood pressure measuring.
Right Ventricle Hypertrophy Index (RVHI): kill the animal by bleeding, open the chest and bring the heart out, then cut the right ventricle down. Wash the heart by saline, absorb the water by filter paper, and then weight the right ventricle, and weight the total weight of the left ventricle and atrioventricular septalium. RVHI=weight of right ventricle/(total weight of left ventricle and atrioventricular septalium)
Pneumonic bronchoalveolar lavage fluid analyse: isobarical lavage machine is infused with Locke's solution, 37° C., the level of bottom is 60-100 cm higher than the T pipe. Kill the animal and open its chest, separate and cut down the trachea, and then bring out the trachea and the lung together, place in the Locke's solution, 37° C. Extrude the air out of the lung, and ligate the trachea with sleeve and connect with the T pipe. Open the T pipe to let Locke's solution flow into the lung, adjust the velocity of flow to about 25 ml/min. Concentrate the lavage 400 g by the centrifugal for 10 minutes, remove the supernatant, then add physiological saline into the deposit to make the cell suspend. Count the number of cells of bronchoalveolar lavage fluid ([…]) by inverted microscope, four times for one sample. Count the number of cells (/ml/g) of bronchoalveolar lavage fluid (BALF). Dye the smear of the suspend with HE, then count the ratio of macrophage in cell types.
Statistic treatment: data is expressed by x±s, and analyzed by one-way ANOVA, and compare with each group by Newman-Keuls method, P<0.05 meants distinct difference.

[8] = test system: isolated bronchitis in contractive state; assay: Lung overfall of isolated bronchitis in contractive state, before and after dosing; parameters: species or system guinea pig; settings: aminophylline group
Description: (§3) The isobarical lavage machine is infused with Locke's solution, 37° C., the level of bottom is 60-100 cm higher than the T pipe. Guinea pigs are narcosis under intraperitoneal anesthesia by 1.5 ml 1% pentobarbital. Take 2 ml blood from cervical artery for detection of inflammatory factors. Kill the animal and open its chest, separate and cut down the trachea, and then bring out the trachea and the lung together, place in the Locke's solution, 37° C. Extrude the air out of the lung, and ligate the trachea with sleeve and connect with the T pipe. Open the T pipe to let Locke's solution flow into the lung, adjust the velocity of flow to about 25 ml/min. Take 5 ml lavage fluid for detection of inflammatory factors. When the velocity of flow is stable, animals are given 0.5% ovalbumin to stimulate the twitching of bronchia. After 30 minutes, observe and record the flux per minute, 6-10 minutes.
After 6-minute stimulating, the lung overfall of isolated bronchitis becomes stable.

IL-2 = IL-2 in blood serum and BALF of asthmatic guinea pig (ELISA); type: in vivo; settings: aminophylline group
Description: (§4) 11) IL-2, IL-4 assaying box for ELISA: provided by Shenzhen Jing Mei Co., Ltd.
as §3

IL-4 = IL-4 in blood serum and BALF of asthmatic guinea pig (ELISA); type: in vivo; settings: aminophylline group
Description: as §4, §3

[9] = Ofloxacin 500 mg/kg, gavage twice every day

CC1COc2c(N3CCN(C)CC3)c(F)cc3c(=O)c(C(=O)O)cn1c23 (centres unmarked) [Ofloxacin]
After infection, dringking, Day 1 [1, 9]: 2.7 mL
After infection, dringking, Day 2 [1, 9]: 3.2 mL
After infection, dringking, Day 3 [1, 9]: 3.0 mL
After infection, dringking, Day 4 [1, 9]: 3.5 mL
After infection, dringking, Day 5 [1, 9]: 4.3 mL
After infection, eating, Day 1 [1, 9]: 1.9 g
After infection, eating, Day 2 [1, 9]: 2.5 g
After infection, eating, Day 3 [1, 9]: 3.2 g
After infection, eating, Day 4 [1, 9]: 3.6 g
After infection, eating, Day 5 [1, 9]: 3.9 g
Survive ([1]; of 15 animals, Ofloxacin group): 15
After infection, dringking, Day 1 [2]: 2.3 mL
After infection, dringking, Day 2 [2]: 3.6 mL
After infection, dringking, Day 3 [2]: 3.8 mL
After infection, dringking, Day 4 [2]: 3.8 mL
After infection, dringking, Day 5 [2]: 4.2 mL
After infection, eating, Day 1 [2]: 2.1 g
After infection, eating, Day 2 [2]: 2.3 g
After infection, eating, Day 3 [2]: 2.9 g
After infection, eating, Day 4 [2]: 3.2 g
After infection, eating, Day 5 [2]: 4.5 g

CC(=O)OCC[N+](C)(C)C.[Cl-] [Ach, Acetylcholine chloride]
Ciliary movement [3]: +++
Moving velocity ([3]; ink on trachea mucous): 5.36 ± 0.64 second/2 mm

COc1ccc2c(c1)[C@]13CCCC[C@@H]1[C@H](C2)N(C)CC3 [Dextromethorphan]
Delitescence ([4]; delitescence of cough): 17.70 ± 4.521
Times of Cough ([4]; in 3 minutes): 77.60 ± 9.88
Delitescence ([5]; delitescence of cough): 30.40 ± 9.91
Times of Cough ([5]; in 3 minutes): 35.20 ± 5.65

C[C@@H]1C[C@H]2[C@@H]3CCC4=CC(=O)C=C[C@]4(C)[C@@]3(F)[C@@H](O)C[C@]2(C)[C@@]1(O)C(=O)CO [dexamethason]
inflammatory pathological changes of trachea and pneumonic tissue (microscope) [6]: obviously different from the model control group

Cn1c(=O)c2[nH]cnc2n(C)c1=O [Aminophylline]
MS ([7]; aminophylline positive control group): 96.7 ± 9.6%
RVHI ([7]; aminophylline positive control group, gavage): 28.62 ± 8.81%
BALF ([7]; cells in bronchoalveolar lavage fluid, aminophylline positive control group): 364.8 ± 95.7 /mm^3
pathological changes of emphysema ([7]; comparing with the model group, aminophylline group): non-obviously improvement
lung overfall of isolated bronchitis in contractive state, After dosing [8]: 17.13 ± 3.08
lung overfall of isolated bronchitis in contractive state, Before dosing ([8]; baseline before dosing): 9.45 ± 1.86
lung overfall of isolated bronchitis in contractive state, After dosing ([8]; listed as aminophylline): increases obviously
IL-2 in BALF (IL-2): 0.13 ± 0.08 b pg/ml
IL-2 in serum (IL-2): 1.45 ± 0.86 b pg/ml
amount of IL-2 in blood serum and BALF (IL-2; summary of table 9): decreases obviously
IL-4 in BALF (IL-4): 26.81 ± 7.76 b pg/ml
IL-4 in serum (IL-4): 1.78 ± 1.56 b pg/ml
amount of IL-4 in blood serum and BALF (IL-4; summary of table 9): decreases obviously

— patent US20100048457A1, “GLYCOPROTEIN FOR TREATING CHRONIC OBSTRUCTIVE PULMONARY DISEASES” (Guangzhou Konzern Pharmacetuical Co. Ltd, priority 2007, published 2010)
